Reference: patent publication US20120015961A1, “ISOTHIOUREA DERIVATIVES OR ISOUREA DERIVATIVES HAVING BACE1 INHIBITORY ACTIVITY” (SHIONOGI & CO., LTD., priority 2009, published 2012)

Tested on: not listed separately
Assay: Solubility test
Format: physicochemical
Details: JP-I medium with 2% DMSO, pH 1.2, simulated gastric fluid, kinetic from dmso stock, turbidity after 4 hours
Experimental: A 2-fold dilution series (12 points) of a 10 mM solution of a test compound in DMSO was added to a medium (JP-I, JP-II) (2%), and solubility was assessed by 3 stages (High; >40 μM, Medium; 3-40 μM, Low; <3 μM) from a turbidity after 4 hours (crystallization information).

Row | solubility at 4 h [µM] | SMILES
1 | > 40 | CO/C(N)=N\C1(c2cccc(NC(=O)c3cnc(OC)cn3)c2)CC1 [Compound 45]
2 | > 40 | CO/C(N)=N\Cc1cc(NC(=O)c2cnc(C)cn2)ccc1F [Compound 40]
3 | > 40 | CS/C(N)=N\C1(c2cccc(NC(=O)c3ccc(C#N)cn3)c2)CCCC1 [Compound 31]
4 | > 40 | CS/C(N)=N\c1cccc2ccc(NC(=O)c3ccc(C#N)cn3)cc12 [Compound 28]

Tested on: Neuroblastoma SH-SY5Y cells (SH/APPwt) with human wild-type β-APP excessively expressed
Assay: Measurement of β-amyloid (Aβ) production inhibitory effect in cell
Format: cell-based
Details: Homo sapiens, SH-SY5Y, 24 h, amount needed to inhibit Aβ production by 50%, 24 hours incubation, Amyloid β1-40 HTRF
Experimental: Neuroblastoma SH-SY5Y cells (SH/APPwt) with human wild-type β-APP excessively expressed therein were prepared at 8×10^5 cells/mL, and 150 μl portions thereof were inoculated into each well of a 96-well culture plate (Falcon). The cells were cultured for 2 hours at 37° C. in a 5% gaseous carbon dioxide incubator. Then, a solution which had been preliminarily prepared by adding and suspending the test compound (DMSO (dimethyl sulfoxide) solution) so as to be 2 μl/50 μl medium was added to the cell sap. Namely, the final DMSO concentration was 1%, and the amount of the cell culture was 200 μl. After the incubation was performed for 24 hours from the addition of the test compound, 100 μl of the culture supernatant was collected from each fraction. The amount of the Aβ in each fraction was measured.
The […] was measured as follows. 10 μl of a homogeneous time resolved fluorescence (HTRF) measurement reagent (Amyloid β1-40 peptide; IBA Molecular Holding, S.A.) and 10 μl of the culture supernatant were put into a 384-well half area microplate (black microplate, Costar) and mixed with each other, and then left standing overnight at 4° C. while the light was shielded. Then, the fluorescence intensity (excitation wavelength: 337 nm, measurement wavelength: 620 nm and 665 nm) was measured with a Wallac 1420 multilabel counter (Perkin Elmer life sciences). The Aβ amount was determined from the count rate at each measurement wavelength (10000×Count 665/Count 620), and the amount needed to inhibit Aβ production by 50% (IC50) was calculated from at least six different dosages.

Row | IC50 [nM] | SMILES
5 | 36 | CC#CCOc1cnc(C(=O)Nc2cccc(C/N=C(/N)SCc3ccncc3)c2)cn1.O=CO [Compound 12]
6 | 4 | CC#CCOc1cnc(C(=O)Nc2ccc(F)c(C3(/N=C(/N)SC)CC3)c2)cn1 [Compound 15]
7 | 55 | CS/C(N)=N\C1(c2cc(NC(=O)c3ccc(C#N)cn3)ccc2F)CC1 [Compound 1]
8 | 28 | CO/C(N)=N\C1(c2cccc(NC(=O)c3cnc(OC)cn3)c2)CC1 [Compound 45]
9 | 524 | CC#CCOc1cnc(C(=O)Nc2cccc(C/N=C(/N)SCc3ccccn3)c2)cn1.O=CO [Compound 11]
10 | ≤ 1000 | CO/C(N)=N\Cc1cc(NC(=O)c2cnc(C)cn2)ccc1F [Compound 40]
11 | 100 | CS/C(N)=N\Cc1cc(NC(=O)c2ccc(C#N)cn2)ccc1F [Compound 2]
12 | ≤ 1000 | CN(C)CCCO/C(N)=N/Cc1cccc(NC(=O)c2ccc(C#N)cn2)c1 [Compound 38]
13 | 260 | CS/C(N)=N/C1CCc2ccc(NC(=O)c3ccc(C#N)cn3)cc21 (stereo not shown) [Compound 32]
14 | 82 | CC#CCOc1cnc(C(=O)Nc2cccc(C/N=C(/N)SCC)c2)cn1 [Compound 7]
15 | 61 | CC#CCOc1cnc(C(=O)Nc2cccc(C/N=C(/N)SCCCC)c2)cn1 [Compound 9]
16 | 119 | CC#CCOc1cnc(C(=O)Nc2cccc(C/N=C(/N)SCc3ccccc3)c2)cn1 [Compound 4]
17 | 40 | CC#CCOc1cnc(C(=O)Nc2cccc(C/N=C(/N)SCCC)c2)cn1 [Compound 8]
18 | 172 | CC#CCOc1cnc(C(=O)Nc2cccc(C/N=C(/N)SCCc3ccccc3)c2)cn1 [Compound 6]
19 | 5 | CC#CCOc1cnc(C(=O)Nc2cccc(C/N=C(/N)SC)c2)cn1 [Compound 3]
20 | ≤ 1000 | CS/C(N)=N\C1(c2cccc(NC(=O)c3ccc(C#N)cn3)c2)CCCC1 [Compound 31]
21 | 193 | CS/C(N)=N\c1cccc2ccc(NC(=O)c3ccc(C#N)cn3)cc12 [Compound 28]
22 | 160 | C=CCS/C(N)=N\Cc1cccc(NC(=O)c2cnc(OCC#CC)cn2)c1 [Compound 5]

Molecular target: T1, Recombinant human BACE1 (Homo sapiens, UniProt P56817)
T1 construct: purchased R&D Systems
T1 sequence (P56817 46-501): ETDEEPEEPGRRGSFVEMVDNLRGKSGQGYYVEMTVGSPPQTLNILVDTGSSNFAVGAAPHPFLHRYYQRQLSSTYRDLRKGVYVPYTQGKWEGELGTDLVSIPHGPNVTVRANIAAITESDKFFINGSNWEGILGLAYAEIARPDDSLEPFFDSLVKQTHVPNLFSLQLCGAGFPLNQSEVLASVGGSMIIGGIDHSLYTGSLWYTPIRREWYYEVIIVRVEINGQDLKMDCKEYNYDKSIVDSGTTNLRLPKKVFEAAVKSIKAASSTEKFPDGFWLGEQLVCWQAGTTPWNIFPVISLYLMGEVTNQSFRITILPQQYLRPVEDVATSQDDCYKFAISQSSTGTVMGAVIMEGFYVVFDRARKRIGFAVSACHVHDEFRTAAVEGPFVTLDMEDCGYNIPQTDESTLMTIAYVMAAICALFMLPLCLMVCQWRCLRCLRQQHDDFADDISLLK
Assay: Assay of BACE1 inhibiting activity
Format: biochemical
Details: 50% inhibitory concentration against enzymatic activity, pH 5.0, 30° C., 3 hours
Experimental: 48.5 μL of substrate peptide solution (Biotin-XSEVNLDAEFRHDSGC-Eu: Xεε-amino-n-capronic acid, Eu=Europium cryptate) was added to each well of 96-hole half-area plate (a black plate: Costar Corporation), and after addition of 0.5 μl of the test compound (dissolved in […]) and 1 μl of Recombinant human BACE1 (R&D Systems), the reaction mixture was incubated at 30° C. for 3 hours. The substrate peptide was synthesized by reacting Cryptate TBPCOOH mono SMP (CIS bio international) with Biotin-XSEVNLDAEFRHDSGC (Peptide Institute, Inc.). The final concentrations of the substrate peptide and Recombinant human BACE1 were adjusted to 18 nM and 7.4 nM respectively, and the reaction was performed in sodium acetate buffer (50 mM sodium acetate, pH 5.0, 0.008% Triton X-100). After the completion of reaction, 50 μl of 8.0 μg/ml Streptavidin-XL665 (CIS bio international) dissolved in phosphate buffer (150 mM K2HPO4—KH2PO4, pH 7.0, 0.008% Triton X-100, 0.8 M KF) was added to each well and left stand at 30° C. for an hour. Then, fluorescence intensity was measured (excitation wavelength: 320 nm, measuring wavelength: 620 nm and 665 nm) using Wallac 1420 multilabel counter (Perkin Elmer life sciences). Enzymatic activity was determined from counting ratio of each wavelength (10,000×Count 665/Count 620) and 50% inhibitory concentration against the enzymatic activity was calculated.

Row | IC50 [nM] | SMILES
23 | 270 | CC#CCOc1cnc(C(=O)Nc2cccc(C/N=C(/N)SCc3ccncc3)c2)cn1.O=CO [Compound 12]
24 | 140 | CC#CCOc1cnc(C(=O)Nc2ccc(F)c(C3(/N=C(/N)SC)CC3)c2)cn1 [Compound 15]
25 | 3670 | CS/C(N)=N\C1(c2cc(NC(=O)c3ccc(C#N)cn3)ccc2F)CC1 [Compound 1]
26 | 290 | CC#CCOc1cnc(C(=O)Nc2cccc(C/N=C(/N)SCc3ccccn3)c2)cn1.O=CO [Compound 11]
27 | 1210 | CC#CCOc1cnc(C(=O)Nc2cccc(C/N=C(/N)SCC)c2)cn1 [Compound 7]
28 | ≤ 1000 | CC#CCOc1cnc(C(=O)Nc2cccc(C/N=C(/N)SCCCC)c2)cn1 [Compound 9]
29 | ≤ 1000 | CC#CCOc1cnc(C(=O)Nc2cccc(C/N=C(/N)SCc3ccccc3)c2)cn1 [Compound 4]
30 | ≤ 1000 | CC#CCOc1cnc(C(=O)Nc2cccc(C/N=C(/N)SCCC)c2)cn1 [Compound 8]
31 | ≤ 1000 | CC#CCOc1cnc(C(=O)Nc2cccc(C/N=C(/N)SCCc3ccccc3)c2)cn1 [Compound 6]
32 | 130 | CC#CCOc1cnc(C(=O)Nc2cccc(C/N=C(/N)SC)c2)cn1 [Compound 3]
33 | 790 | CS/C(N)=N\c1cccc2ccc(NC(=O)c3ccc(C#N)cn3)cc12 [Compound 28]
34 | ≤ 1000 | C=CCS/C(N)=N\Cc1cccc(NC(=O)c2cnc(OCC#CC)cn2)c1 [Compound 5]

Molecular target: CYP3A4 (Homo sapiens, UniProt P08684)
Sequence (P08684 whole entry): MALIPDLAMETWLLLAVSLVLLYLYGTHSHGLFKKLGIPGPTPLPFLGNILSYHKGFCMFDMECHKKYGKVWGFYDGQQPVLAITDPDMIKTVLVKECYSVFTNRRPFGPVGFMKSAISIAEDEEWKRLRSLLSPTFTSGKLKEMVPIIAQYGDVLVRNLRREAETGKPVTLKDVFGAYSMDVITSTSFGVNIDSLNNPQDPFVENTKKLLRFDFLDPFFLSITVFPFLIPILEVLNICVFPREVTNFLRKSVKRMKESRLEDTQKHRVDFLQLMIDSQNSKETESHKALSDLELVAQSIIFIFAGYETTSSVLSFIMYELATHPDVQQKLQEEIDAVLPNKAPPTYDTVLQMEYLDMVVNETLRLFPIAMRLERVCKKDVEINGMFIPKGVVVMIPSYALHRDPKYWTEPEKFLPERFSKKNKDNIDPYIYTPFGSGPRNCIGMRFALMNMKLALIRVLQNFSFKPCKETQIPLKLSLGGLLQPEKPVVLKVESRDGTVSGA
Assay: CYP3A4 fluorescent MBI test
Format: in vitro ADME
Design: host or cells: E. coli
Details: (IC50 without pre reaction) − (IC50 with pre reaction), pre-reaction 0 or 30 minutes
Experimental: The CYP3A4 fluorescent MBI test is a test to examine enhancement of CYP3A4 inhibition by metabolic reaction of the compound. Here, E. coli-expressing CYP3A4 was used as an enzyme, and a reaction wherein 7-benzyloxy trifluoromethylcumarin (BFC) was debenzylated by the CYP3A4 enzyme into a fluorescent metabolite 7-hydroxytrifluoromethylcumarin (HFC) was employed as an indicator reaction. The reaction conditions were as follows.
Substrate: 5.6 μM/L 7-BFC
Pre-reaction time: 0 or 30 minutes
Reaction time: 15 minutes
Reaction temperature: 25° C. (room temperature)
CYP3A4 content (E. coli-expressing enzyme): 62.5 pmol/mL at pre-reaction, 6.25 pmol/mL at reaction (10-fold diluted)
Test compound concentration: 0.625, 1.25, 2.5, 5, 10, and 20 μM (six different concentrations).
The enzyme and a test compound solution were added to a K-Pi buffer (pH 7.4) in the aforementioned amounts for the pre-reaction so that a pre-reaction solution was prepared, and this solution was put into a 96-well microplate. Part of this solution was transferred to another 96-well microplate such that it was diluted with the substrate and the K-Pi buffer to get a 10-fold diluted solution. NADPH, which is a coenzyme, was added so as to trigger the indicator reaction (without pre-reaction). As the reaction proceeded for a predetermined time period, acetonitrile/0.5 M Tris (tris hydroxyaminomethane)=4/1 was added to terminate the reaction. NADPH was also added to the residual pre-reaction solution so as to trigger the pre-reaction (with pre-reaction). As the pre-reaction proceeded for a predetermined time period, part of the solution was transferred to another microplate so that the solution was diluted with the substrate and the K-Pi buffer to get a 10-fold diluted solution, and then the indicator reaction was triggered. As the reaction proceeded for a predetermined time period, acetonitrile/0.5 M Tris (tris hydroxyaminomethane)=4/1 was added so as to terminate the reaction. With respect to each of the microplates on which the indicator reaction was performed, the fluorescence value of the metabolite 7-HFC was measured with a fluorescence plate reader (Ex=420 nm, Em=535 nm).
Control (100%) was prepared by adding only DMSO, which was used as a solvent to dissolve the drug, to the reaction system. The remaining activity (%) at each concentration after adding the test compound solution was calculated, and the IC50 values of without pre reaction and with pre reaction were calculated by the formula: y=A+((B−A)/(1+((C/x)^D))) using XLfit. The IC50 shift value was calculated by the formula: (the IC50 value of without pre reaction)−(the IC50 value of with pre reaction).

Row | IC50 shift [nM] | SMILES
35 | <-2000 | CC#CCOc1cnc(C(=O)Nc2cccc(C/N=C(/N)SCc3ccncc3)c2)cn1.O=CO [Compound 12]
36 | <-3000 | CC#CCOc1cnc(C(=O)Nc2ccc(F)c(C3(/N=C(/N)SC)CC3)c2)cn1 [Compound 15]
37 | 0 | CS/C(N)=N\C1(c2cc(NC(=O)c3ccc(C#N)cn3)ccc2F)CC1 [Compound 1]
38 | 0 | CS/C(N)=N\Cc1cccc(NC(=O)c2cnc(C)cn2)c1 [Compound 18]
39 | -2000 | CC#CCOc1cnc(C(=O)Nc2cccc(C/N=C(/N)SCc3ccccn3)c2)cn1.O=CO [Compound 11]
40 | 0 | CS/C(N)=N\Cc1cc(NC(=O)c2ccc(C#N)cn2)ccc1F [Compound 2]
41 | 0 | CS/C(N)=N/C1CCc2ccc(NC(=O)c3ccc(C#N)cn3)cc21 (stereo not shown) [Compound 32]
42 | <-2000 | CC#CCOc1cnc(C(=O)Nc2cccc(C/N=C(/N)SCC)c2)cn1 [Compound 7]
43 | -5000 | CC#CCOc1cnc(C(=O)Nc2cccc(C/N=C(/N)SCCCC)c2)cn1 [Compound 9]
44 | 1000 | CC#CCOc1cnc(C(=O)Nc2cccc(C/N=C(/N)SCc3ccccc3)c2)cn1 [Compound 4]
45 | -4000 | CC#CCOc1cnc(C(=O)Nc2cccc(C/N=C(/N)SCCC)c2)cn1 [Compound 8]
46 | -2000 | CC#CCOc1cnc(C(=O)Nc2cccc(C/N=C(/N)SCCc3ccccc3)c2)cn1 [Compound 6]
47 | 0 | CC#CCOc1cnc(C(=O)Nc2cccc(C/N=C(/N)SC)c2)cn1 [Compound 3]
48 | 1000 | CS/C(N)=N\c1cccc2ccc(NC(=O)c3ccc(C#N)cn3)cc12 [Compound 28]
49 | -2000 | C=CCS/C(N)=N\Cc1cccc(NC(=O)c2cnc(OCC#CC)cn2)c1 [Compound 5]
50 | 0 | CS/C(N)=N\C1(c2cccc(NC(=O)c3cnc(C)cn3)c2)CCCC1 [Compound 30]

Molecular target: T2, hERG channel (Homo sapiens, UniProt Q12809)
T2 construct: expressed in transfected cells; host or cells: HEK293
T2 sequence (Q12809 whole entry): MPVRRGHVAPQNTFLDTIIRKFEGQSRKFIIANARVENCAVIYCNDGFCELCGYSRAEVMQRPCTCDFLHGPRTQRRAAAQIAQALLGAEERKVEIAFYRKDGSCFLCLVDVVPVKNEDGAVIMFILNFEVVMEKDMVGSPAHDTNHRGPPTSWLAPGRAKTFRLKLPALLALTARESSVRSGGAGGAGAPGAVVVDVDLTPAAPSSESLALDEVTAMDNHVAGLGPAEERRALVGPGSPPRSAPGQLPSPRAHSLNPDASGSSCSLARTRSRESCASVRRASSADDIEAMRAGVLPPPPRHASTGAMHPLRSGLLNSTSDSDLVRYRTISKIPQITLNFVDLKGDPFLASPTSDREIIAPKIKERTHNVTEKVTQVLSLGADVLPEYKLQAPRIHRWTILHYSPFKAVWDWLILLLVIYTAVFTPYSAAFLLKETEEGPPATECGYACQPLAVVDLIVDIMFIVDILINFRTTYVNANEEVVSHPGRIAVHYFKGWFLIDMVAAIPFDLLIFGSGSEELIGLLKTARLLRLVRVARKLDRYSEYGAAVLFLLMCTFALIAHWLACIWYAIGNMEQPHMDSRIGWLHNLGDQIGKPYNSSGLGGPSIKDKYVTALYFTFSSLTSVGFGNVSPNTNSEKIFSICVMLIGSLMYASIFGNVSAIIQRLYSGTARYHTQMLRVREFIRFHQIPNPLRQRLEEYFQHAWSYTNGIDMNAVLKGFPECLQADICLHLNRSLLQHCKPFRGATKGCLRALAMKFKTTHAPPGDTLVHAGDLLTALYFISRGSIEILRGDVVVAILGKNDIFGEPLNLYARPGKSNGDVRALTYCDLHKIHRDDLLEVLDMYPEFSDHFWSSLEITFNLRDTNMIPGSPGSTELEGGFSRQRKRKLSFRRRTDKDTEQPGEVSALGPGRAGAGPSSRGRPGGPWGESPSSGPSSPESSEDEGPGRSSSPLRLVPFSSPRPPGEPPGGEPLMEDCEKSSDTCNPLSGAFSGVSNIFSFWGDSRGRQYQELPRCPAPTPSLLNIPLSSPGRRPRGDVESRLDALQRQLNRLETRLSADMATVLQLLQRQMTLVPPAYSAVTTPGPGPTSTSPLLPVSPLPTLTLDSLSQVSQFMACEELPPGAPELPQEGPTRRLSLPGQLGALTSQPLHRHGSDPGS
Assay: hERG test (whole-cell patch clamp)
Format: cell-based
Details: HEK293 cells that express hERG, 5 μM test compound for 7 minutes, peak tail current, read-out: Inhibition Rate (%)
Experimental: As risk assessment for QT prolongation in vitro, the action on delayed rectifier potassium current was studied using a HEK293 cell with a human delayed potassium ether-a-go-go related gene (hERG) channel expressed therein.
A cell was maintained at a membrane potential of −80 mV, then +50 mV of a depolarizing stimulus (2 seconds) was applied to the cell, further −50 mV of a repolarizing stimulus (2 seconds) was applied thereto and the induced peak tail current was measured by a whole-cell patch clamp technique. 5 μM of the test compounds was applied to the cells for 7 minutes, the inhibition rate before application of the test compound was calculated, and it was compared to the rate of vehicle group (0.5% dimethylsulfoxide solution).

Row | SMILES | inhibition at 7 min, 5 µM [%]
51 | CC#CCOc1cnc(C(=O)Nc2ccc(F)c(C3(/N=C(/N)SC)CC3)c2)cn1 [Compound 15] | 31.5
52 | CS/C(N)=N\C1(c2cc(NC(=O)c3ccc(C#N)cn3)ccc2F)CC1 [Compound 1] | 63.8
53 | CO/C(N)=N\C1(c2cccc(NC(=O)c3cnc(OC)cn3)c2)CC1 [Compound 45] | 2.5
54 | CS/C(N)=N\Cc1cccc(NC(=O)c2cnc(C)cn2)c1 [Compound 18] | 10.8
55 | CN(C)CCCO/C(N)=N/Cc1cccc(NC(=O)c2ccc(C#N)cn2)c1 [Compound 38] | 8.4
56 | CC#CCOc1cnc(C(=O)Nc2cccc(C/N=C(/N)SC)c2)cn1 [Compound 3] | 67.6
57 | CS/C(N)=N\c1cccc2ccc(NC(=O)c3ccc(C#N)cn3)cc12 [Compound 28] | 60.4
58 | CS/C(N)=N\C1(c2cccc(NC(=O)c3cnc(C)cn3)c2)CCCC1 [Compound 30] | 14.1
